Measurements published in patent US12612416B2, “Modulators of cystic fibrosis transmembrane conductance regulator” (VERTEX PHARMACEUTICALS INCORPORATED, priority 2020, dated 2026).

How the values were obtained:
[1] = molecular target: T1, CFTR-mediated short-circuit current in F508del/MF-HBE cells (Homo sapiens, UniProt P13569, DEL508-508); experiment: HBE2 assay: Ussing chamber assay of CFTR-mediated short-circuit currents; type: cell-based; settings: single fixed concentration 3 μM in combination with 44 nM (6R,12R)-17-amino-12-methyl-6,15-bis(trifluoromethyl)-13,19-dioxa-3,4,18-triazatricyclo[12.3.1.12,5]nonadeca-1(18),2,4,14,16-pentaen-6-ol, 20% human serum
T1 construct: endogenous in cells; host or cells: primary human bronchial epithelial cells from CF subjects (F508del/MF)
Description: Ussing chamber experiments were performed using human bronchial epithelial (HBE) cells derived from CF subjects heterozygous for F508del and a minimal function CFTR mutation (F508del/MF-HBE) and cultured as previously described (Neuberger T, Burton B, Clark H, Van Goor F Methods Mol Biol 2011:741:39-54). After four days the apical media was removed, and the cells were grown at an air liquid interface for >14 days prior to use.
To isolate the CFTR-mediated short-circuit (ISC) current, F508del/MF-HBE grown on Costar® Snapwell™ cell culture inserts were mounted in an Ussing chamber and the transepithelial ISC was measured under voltage-clamp recording conditions (Vhold=0 mV) at 37° C. The basolateral solution contained (in mM) 145 NaCl, 0.83K2HPO4, 3.3 KH2PO4, 1.2 MgCl2, 1.2 CaCl2), 10 Glucose, 10 HEPES (pH adjusted to 7.4 with NaOH) and the apical solution contained (in mM) 145 NaGluconate, 1.2 MgCl2, 1.2 CaCl2), 10 glucose, 10 HEPES (pH adjusted to 7.4 with NaOH) and 30 μM amiloride to block the epithelial sodium channel. […] The CFTR-mediated ISC (μA/cm^2) for each condition was determined from the peak forskolin response to the steady-state current following inhibition.
The activity of the CFTR corrector compounds on the CFTR-mediated ISC was determined in Ussing chamber studies as described above. […]

CFTR = CFTR (Homo sapiens, UniProt P13569); experiment: standard Ussing Chamber Assay for CFTR potentiator activity; type: cell-based
Description: tert-Butyl N-[(6R,12R)-6-benzyloxy-12-methyl-6,15-bis(trifluoromethyl)-13,19-dioxa-3,4,18-triazatricyclo[12.3.1.12,5]nonadeca-1(18),2,4,14,16-pentaen-17-yl]-N-tert-butoxycarbonyl-carbamate (8.6 g, 11.77 mmol) was dissolved in ethanol (172 mL) then the flask was cycled 3 times between vacuum/nitrogen. Treated the mixture with 10% Pd/C (50% water wet, 1.8 g of 5% w/w, 0.8457 mmol) then cycled 3 times between vacuum/nitrogen and 3 times between vacuum/hydrogen and then stirred vigorously under hydrogen (balloon) at room temperature for 18 hours. The mixture was cycled 3 times between vacuum/nitrogen, filtered over Celite, washing with ethanol, and then the filtrate was evaporated to give 7.3 g of tert-butyl N-tert-butoxycarbonyl-N-[(6R,12R)-6-hydroxy-12-methyl-6,15-bis(trifluoromethyl)-13,19-dioxa-3,4,18-triazatricyclo[12.3.1.12,5]nonadeca-1(18),2,4,14,16-pentaen-17-yl]carbamate an off-white solid. 1H NMR and MS confirmed the expected product. CFTR modulating activity was confirmed using a standard Ussing Chamber Assay for CFTR potentiator activity.

[2] = from Cc1cccc(C)c1-c1cc(C(CCN)c2ccc(C(C)(C)C)cc2)nc(NS(=O)(=O)c2cccc(C(=O)O)c2)n1; amide bond; 13-membered ring; HATU/DIEA; DMF; 11.6 mM; 25.0 °C; 21.0 h
[3] = molecular target: CFTR-mediated chloride transport in human intestinal epithelial enteroid cells (Homo sapiens, UniProt P13569); experiment: Membrane potential dye, Enteroid Assay B; type: cell-based
Description: Base medium (ADF+++) consisted of Advanced DMEM/Ham's F12, 2 mM Glutamax, 10 mM HEPES, […] penicillin/streptomycin.
Intestinal enteroid maintenance medium (IEMM) consisted of ADF+++, 1×B27 supplement, 1×N2 supplement, 1.25 mM N-acetyl cysteine, 10 mM Nicotinamide, 50 ng/mL hEGF, 10 nM Gastrin, 1 μg/mL hR-spondin-1, 100 ng/mL hNoggin, TGF-b type 1 inhibitor A-83-01, 100 μg/mL Primocin, 10 μM P38 MAPK inhibitor SB202190.
Bath 1 Buffer consisted of 1 mM MgCl2, 160 mM NaCl, 4.5 mM KCl, 10 mM HEPES, 10 mM Glucose, 2 mM CaCl2).
Chloride Free Buffer consisted of 1 mM Magnesium Gluconate, 2 mM Calcium Gluconate, 4.5 mM Potassium Gluconate, 160 mM Sodium Gluconate, 10 mM HEPES, 10 mM Glucose.
BathI Dye Solution consisted of Bath 1 Buffer, 0.04% Pluronic F127, 20 μM Methyl Oxonol, 30 μM CaCCinh-A01, 30 μM Chicago Sky Blue.
Chloride Free Dye Solution consisted of Chloride Free Buffer, 0.04% Pluronic F127, 20 μM Methyl Oxonol, 30 μM CaCCinh-A01, 30 μM Chicago Sky Blue.
Chloride Free Dye Stimulation Solution consisted of Chloride Free Dye Solution, 10 μM forskolin, 100 μM IBMX, and 300 nM Compound III.
Human intestinal epithelial enteroid cells were obtained from the Hubrecht Institute for Developmental Biology and Stem Cell Research, Utrecht, The Netherlands and expanded in T-Flasks as previously described (Dekkers J F, Wiegerinck C L, de Jonge H R, Bronsveld I, Janssens H M, de Winter-de Groot K M, Brandsma A M, de Jong N W M, Bijvelds M J C, Scholte B J, Nieuwenhuis E E S, van den Brink S, Clevers H, van der Ent C K, Middendorp S and M Beekman J M. A functional CFTR assay using primary cystic fibrosis intestinal organoids. Nat Med. 2013 July; 19(7):939-45.).
Cells were recovered in cell recovery solution, collected by centrifugation at 650 rpm for 5 minutes at 4° C., resuspended in TrypLE and incubated for 5 minutes at 37° C. Cells were then collected by centrifugation at 650 rpm for 5 minutes at 4° C. and resuspended in IEMM containing 10 μM ROCK inhibitor (RI). The cell suspension was passed through a 40 μm cell strainer and resuspended at 1×10^6 cells/mL in IEMM containing 10 μM RI. Cells were seeded at 5000 cells/well into multi-well plates and incubated for overnight at 37° C., 95% humidity and 5% CO2 prior to assay.
Enteroid cells were incubated with test compound in IEMM for 18-24 hours at 37° C., 95% humidity, and 5% C02. […] Briefly, cells were washed 5 times in Bath 1 Buffer. Bath 1 Dye Solution was added and the cells were incubated for 25 minutes at room temperature. Following dye incubation, cells were washed 3 times in Chloride Free Dye Solution. Chloride transport was initiated by addition of Chloride Free Dye Stimulation Solution and the fluorescence signal was read for 15 minutes. […] Chloride transport was then expressed as a percentage of the chloride transport following treatment with 1 μM (14S)-8-[3-(2-{Dispiro[2.0.2.1]heptan-7-yl}ethoxy)-1H-pyrazol-1-yl]-12,12-dimethyl-2λ^6-thia-3,9,11,18,23-pentaazatetracyclo[17.3.1.111,14.05,10]tetracosa-1(22),5,7,9,19(23),20-hexaene-2,2,4-trione, 3 μM (R)-1-(2,2-difluorobenzo[d][1,3]dioxol-5-yl)-N-(1-(2,3-dihydroxypropyl)-6-fluoro-2-(1-hydroxy-2-methylpropan-2-yl)-1H-indol-5-yl)cyclopropanecarboxamide and 300 nM acute N-[2,4-bis(1,1-dimethylethyl)-5-hydroxyphenyl]-1,4-dihydro-4-oxoquinoline-3-carboxamide triple combination control (% Activity).

Sequence of CFTR-mediated chloride transport in human intestinal epithelial enteroid cells (P13569 with tags, fused parts or gaps DEL508-508): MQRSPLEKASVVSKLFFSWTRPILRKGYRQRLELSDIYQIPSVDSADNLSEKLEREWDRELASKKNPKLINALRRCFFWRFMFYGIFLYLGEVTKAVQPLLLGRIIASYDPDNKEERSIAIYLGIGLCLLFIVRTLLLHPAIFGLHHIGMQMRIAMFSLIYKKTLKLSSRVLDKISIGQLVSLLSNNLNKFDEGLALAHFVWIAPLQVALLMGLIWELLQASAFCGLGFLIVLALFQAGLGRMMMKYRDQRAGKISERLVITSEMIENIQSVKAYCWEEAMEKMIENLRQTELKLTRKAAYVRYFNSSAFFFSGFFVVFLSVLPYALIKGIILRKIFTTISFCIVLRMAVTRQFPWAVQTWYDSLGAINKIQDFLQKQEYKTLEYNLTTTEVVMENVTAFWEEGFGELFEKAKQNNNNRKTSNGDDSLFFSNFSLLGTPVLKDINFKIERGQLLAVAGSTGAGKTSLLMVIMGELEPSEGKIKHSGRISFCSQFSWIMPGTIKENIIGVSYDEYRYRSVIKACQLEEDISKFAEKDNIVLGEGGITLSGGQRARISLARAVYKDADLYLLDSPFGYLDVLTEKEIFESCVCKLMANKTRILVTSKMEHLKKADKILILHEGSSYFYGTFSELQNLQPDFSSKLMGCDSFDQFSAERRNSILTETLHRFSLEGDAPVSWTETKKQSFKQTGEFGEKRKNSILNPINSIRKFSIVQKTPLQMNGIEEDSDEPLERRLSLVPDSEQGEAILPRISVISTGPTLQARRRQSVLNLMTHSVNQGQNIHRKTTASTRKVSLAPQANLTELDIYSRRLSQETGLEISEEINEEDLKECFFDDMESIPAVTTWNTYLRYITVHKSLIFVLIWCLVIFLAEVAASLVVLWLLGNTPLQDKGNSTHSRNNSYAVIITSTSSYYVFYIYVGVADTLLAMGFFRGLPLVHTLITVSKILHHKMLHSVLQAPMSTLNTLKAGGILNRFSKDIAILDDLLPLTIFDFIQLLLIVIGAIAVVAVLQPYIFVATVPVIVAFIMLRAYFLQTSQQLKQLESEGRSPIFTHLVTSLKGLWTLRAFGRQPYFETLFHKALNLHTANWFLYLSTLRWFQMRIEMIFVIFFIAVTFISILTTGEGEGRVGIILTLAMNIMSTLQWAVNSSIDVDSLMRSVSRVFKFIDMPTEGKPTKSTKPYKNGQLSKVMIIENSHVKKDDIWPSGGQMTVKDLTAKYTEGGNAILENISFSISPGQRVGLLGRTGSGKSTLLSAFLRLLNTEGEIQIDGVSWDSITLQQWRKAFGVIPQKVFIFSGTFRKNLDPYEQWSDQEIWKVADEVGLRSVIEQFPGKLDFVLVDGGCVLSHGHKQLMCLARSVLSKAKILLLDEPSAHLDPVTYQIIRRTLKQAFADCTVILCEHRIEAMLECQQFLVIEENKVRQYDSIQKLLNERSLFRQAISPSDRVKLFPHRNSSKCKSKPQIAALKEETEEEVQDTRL
T1 sequence (P13569 with tags, fused parts or gaps DEL508-508): as above
Sequence of CFTR (P13569 whole entry, species assumed): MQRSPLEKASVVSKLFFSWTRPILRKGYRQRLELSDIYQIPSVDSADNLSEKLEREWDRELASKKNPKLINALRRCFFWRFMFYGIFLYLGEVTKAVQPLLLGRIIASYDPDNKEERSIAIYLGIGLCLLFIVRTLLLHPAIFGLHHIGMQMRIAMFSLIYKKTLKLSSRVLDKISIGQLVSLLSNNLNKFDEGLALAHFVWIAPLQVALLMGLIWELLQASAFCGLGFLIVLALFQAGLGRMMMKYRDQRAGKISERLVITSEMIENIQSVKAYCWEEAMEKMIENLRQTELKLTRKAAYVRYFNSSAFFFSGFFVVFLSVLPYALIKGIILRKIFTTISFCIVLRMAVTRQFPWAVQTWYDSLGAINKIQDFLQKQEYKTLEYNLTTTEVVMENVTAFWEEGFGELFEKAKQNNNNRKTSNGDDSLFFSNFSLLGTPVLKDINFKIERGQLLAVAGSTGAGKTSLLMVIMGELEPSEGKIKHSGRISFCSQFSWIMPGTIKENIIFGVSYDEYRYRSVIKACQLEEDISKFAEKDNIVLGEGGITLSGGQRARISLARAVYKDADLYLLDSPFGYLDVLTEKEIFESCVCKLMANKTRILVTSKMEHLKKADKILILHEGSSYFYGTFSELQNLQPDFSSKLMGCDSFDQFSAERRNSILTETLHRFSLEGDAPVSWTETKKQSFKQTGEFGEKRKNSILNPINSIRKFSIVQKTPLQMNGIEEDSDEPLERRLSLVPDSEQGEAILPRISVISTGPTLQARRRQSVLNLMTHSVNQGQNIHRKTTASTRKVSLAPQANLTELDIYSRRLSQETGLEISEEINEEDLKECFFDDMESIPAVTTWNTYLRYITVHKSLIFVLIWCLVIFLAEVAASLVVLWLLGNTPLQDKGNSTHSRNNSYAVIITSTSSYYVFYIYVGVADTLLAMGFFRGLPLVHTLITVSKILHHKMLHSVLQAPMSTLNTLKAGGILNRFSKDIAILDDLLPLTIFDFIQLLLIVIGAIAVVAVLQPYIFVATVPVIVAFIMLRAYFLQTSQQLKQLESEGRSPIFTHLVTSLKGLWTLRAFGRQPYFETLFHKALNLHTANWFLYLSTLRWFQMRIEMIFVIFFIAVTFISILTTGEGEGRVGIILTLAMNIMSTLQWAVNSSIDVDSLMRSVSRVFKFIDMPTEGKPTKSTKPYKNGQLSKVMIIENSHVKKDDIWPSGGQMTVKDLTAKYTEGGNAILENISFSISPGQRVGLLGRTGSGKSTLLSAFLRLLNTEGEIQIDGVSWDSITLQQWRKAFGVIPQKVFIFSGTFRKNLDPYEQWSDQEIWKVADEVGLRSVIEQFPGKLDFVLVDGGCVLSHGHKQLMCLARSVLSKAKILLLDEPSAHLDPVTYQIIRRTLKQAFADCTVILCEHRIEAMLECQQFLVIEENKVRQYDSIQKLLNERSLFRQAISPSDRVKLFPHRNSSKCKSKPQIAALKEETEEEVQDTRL

In the case of Cc1cccc(C)c1-c1cc2nc(n1)NS(=O)(=O)c1cccc(c1)C(=O)N(Cc1cncc(N(C)C3CCC3)n1)[C@H](CC(C)(C)C)CC2 [Compound 72], the “HBE2 Activity at 3 μM” value [1] is reported as “+++ (+++ is >60%)”.
For C[C@@H]1CCCCC[C@](O)(C(F)(F)F)C2=NN=C(O2)c2nc(c(C(F)(F)F)cc2N)O1 [(6R,12R)-17-amino-12-methyl-6,15-bis(trifluoromethyl)-13,19-dioxa-3,4,18-triazatricyclo[12.3.1.12,5]nonadeca-1(18),2,4,14,16-pentaen-6-ol], the “CFTR modulating activity (CFTR potentiator activity)” value (CFTR) was “confirmed”.
In the case of Cc1cccc(C)c1-c1cc2nc(n1)NS(=O)(=O)c1cccc(c1)C(=O)N(C1CC3(CC(NC(=O)OC(C)C)C3)C1)[C@H](CC(C)(C)C)CC2 (stereo partly drawn) [Compound 69], the “HBE2 Activity at 3 μM” value [1] is reported as “+++ (+++ is >60%)”.
For Cc1cccc(C)c1-c1cc2nc(n1)NS(=O)(=O)c1cccc(c1)C(=O)NCCC2c1ccc(C(C)(C)C)cc1 (stereo not drawn) [Compound 5, 9-(4-tert-Butylphenyl)-6-(2,6-dimethylphenyl)-2,2-dioxo-2 λ6-thia-3,5,12,19-tetrazatricyclo[12.3.1.14,8]nonadeca-1(18),4(19),5,7,14,16-hexaen-13-one], the ring closure, isolated yield [2] was 40%, the “Ent. B Max Activity” value ([3]; % of chloride transport of triple combination control: 1 μM (14S)-8-[3-(2-{Dispiro[2.0.2.1]heptan-7-yl}ethoxy)-1H-pyrazol-1-yl]-12,12-dimethyl-...-2,2,4-trione, 3 μM tezacaftor, 300 nM acute ivacaftor) was “+++ (+++ is >60%)” and the EC50 ([3]; enteroid cells, 18-24 hours incubation, acute 10 μM forskolin and 300 nM ivacaftor, read-out: Ent. B EC50) was < 1 µM.
